According to patent publication US20060189634A1, “Fungicide mixtures” (priority 2003, published 2006):

System: Plasmopara viticola
Experiment: Activity against peronospora of grapevines caused by Plasmopara viticola (protective spray on potted vines)
Type: in vivo
Settings: individual active compound, grapevine leaves cv. Müller-Thurgau, untreated control 81% infection
Protocol: The active compounds, separately or jointly, were prepared as a stock solution comprising 0.25% by weight of active compound in acetone or DMSO. 1% by weight of the emulsifier Uniperol® EL (wetting agent having emulsifying and dispersant action based on ethoxylated alkylphenols) was added to this solution, and the mixture was diluted with water to the desired concentration.
Use example—Activity against peronospora of grapevines caused by Plasmopara viticola
Leaves of potted vines of the cultivar “Müller-Thurgau” were sprayed to runoff point with an aqueous suspension having the concentration of active compound stated below. The next day, the undersides of the leaves were inoculated with an aqueous zoospore suspension of Plasmopara viticola. The grapevines were then initially placed in a water-vapor-saturated chamber at 24° C. for 48 hours and then in a greenhouse at 20-30° C. for 5 days. After this period of time, the plants were again placed in a humid chamber for 16 hours to promote sporangiophore eruption. The extent of the development of the disease on the undersides of the leaves was then determined visually.
The visually determined percentages of infected leaf areas were converted into efficacies in % of the untreated control:
The efficacy (E) is calculated as follows using Abbot's formula: E=(1−α/β)−100 α corresponds to the fungicidal infection of the treated plants in % and β corresponds to the fungicidal infection of the untreated (control) plants in %
An efficacy of 0 means that the infection level of the treated plants corresponds to that of the untreated control plants; an efficacy of 100 means that the treated plants were not infected.
The expected efficacies of mixtures of active compounds were determined using Colby's formula (Colby, S. R. “Calculating synergistic and antagonistic responses of herbicide combinations”, Weeds, 15, 20-22, 1967) and compared with the observed efficacies.
Colby's formula: E=x+y−x·y/100 E expected efficacy, expressed in % of the untreated control, when using the mixture of the active compounds A and B at the concentrations a and b x efficacy, expressed in % of the untreated control, when using the active compound A at the concentration a y efficacy, expressed in % of the untreated control, when using the active compound B at the concentration b

Row | SMILES | Efficacy in % of the untreated control (1 ppm in the spray liquor) | Efficacy in % of the untreated control (4 ppm in the spray liquor) | Efficacy in % of the untreated control (16 ppm in the spray liquor)
1 | N#Cc1sc2c(=O)c3ccccc3c(=O)c=2sc1C#N [II (dithianon), 5,10-dioxo-5,10-dihydronaphtho[2,3-b][1,4]dithiine-2,3-dicarbonitrile] | 1% | 13% | 13%
2 | CC1CCN(c2c(-c3c(F)cccc3Cl)c(Cl)nc3ncnn23)CC1 [Comparison A] |  | 13% | 
3 | C[C@H](Nc1c(-c2c(F)cc(F)cc2F)c(Cl)nc2ncnn12)C(F)(F)F [Comparison B] |  | 13% | 
4 | CC1CCN(c2c(-c3c(F)cc(F)cc3F)c(Cl)nc3ncnn23)CC1 [I, 5-chloro-7-(4-methylpiperidin-1-yl)-6-(2,4,6-trifluorophenyl)-[1,2,4]triazolo[1,5-a]pyrimidine] |  | 51% | 
